“And” between values parts separate entries of the source, which are not always exact repeats. Equal values may be shown once.
Columns and labels:
[1] = Partition equilibrium in the presence of surfactants (TBA, CTA, TMA); assay type: physicochemical
[2] = Control experiments: availability of the species in alkaline aqueous medium without using the reactor; assay type: physicochemical; conditions: acid solubilized directly in aqueous phase, no reactor
[3] = Partition equilibrium under the influence of salinity (NaCl), glass reactor, neutralization titration; assay type: physicochemical; conditions: Salinity 0 (%, m · m^−1) NaCl
[4] = Partition equilibrium (migration to aqueous phase) heptol/water under pressure and temperature, central composite design, potentiometric titration; assay type: physicochemical; conditions: for Migration, Predicted: model value
Method: Three multivariate experimental designs (central composite designs) were performed in which the variables pressure (up to 1 MPa) and temperature (between 25° C. and 80° C.) were considered independent variables, with the migration of three acidic species as the response factor: benzoic, pentanoic and cyclohexanepentanoic acid. For this purpose, 5 levels were defined and gave rise to 10 experiments for each acidic species (Table 4), added to two control experiments (with higher pressure and temperature, as well as in the absence of pressure and at room temperature).
The experiments were performed with constant salinity of 3.5% (m·v^−1), constant heptol fraction (70:30, for heptane and toluene), and acidic species concentration of 0.03 M for benzoic and pentanoic acid, and 0.01 M for cyclohexanepentanoic acid. The results were evaluated with 95% confidence, using a response surface to estimate the maximum observable effect in each case, provided that the mathematical correlation was equal to or greater than R^2: 0.75.

[5] = Partition equilibrium in reactor pressurized with CO2, in presence and absence of alkalinity (NaHCO3, Na2CO3), back titration
[6] = Partition equilibrium under the influence of salinity (NaCl), glass reactor, neutralization titration; assay type: physicochemical
[7] = Partition equilibrium in the presence of demulsifiers (Dissolvan 961, Dissolvan 974)
From the text: Finally, neutralization titration with a standardized NaOH titrant solution was used to determine the effect on the partition equilibrium for four acidic species (the same as in the other examples, except for dicyclohexylacetic acid).

[8] = 52 °C, 0.5 MPa (experiments 9 and 10)

Migration ([1]; Absence of surfactant, salinity 3.5%): 77.0 %, mol
Migration ([1]; CTA100 (cetyltrimethylammonium chloride 100 mg · L^−1)): 76.0 %, mol
Migration ([1]; CTA1000 (1000 mg · L^−1)): 85.0 %, mol
Migration ([1]; TBA100 (tetrabutylammonium chloride 100 mg · L^−1)): 76.2 %, mol
Migration ([1]; TBA1000 (1000 mg · L^−1)): 73.3 %, mol
Migration ([1]; TMA100 (trimethylammonium chloride 100 mg · L^−1)): 83.2 %, mol
Migration ([1]; TMA1000 (1000 mg · L^−1)): 83.5 %, mol
Increase in migration to the aqueous phase with CTA ([1]; surfactant CTA, 1000 mg·L^−1): ~10%
Effect of TBA on migration to the aqueous phase ([1]; surfactant TBA, different concentrations): no significant effect
Increase in affinity for the hydrophilic phase with TMA ([1]; surfactant TMA, from 100 mg·L^−1): approximately 10%
Availability (reference value) ([2]; Na2CO3 + NaHCO3 (3.48×10^−5 mol)): 66.0 % mol
Availability (reference value) ([2]; NaHCO3 (3.45×10^−5 mol)): 90.7 % mol
Migration [3]: 76.7 %, mol
Migration, Measured ([4]; 20 °C, 0.1 MPa (experiment 12, control)): 86.6 %, mol
Migration, Increment (related to control) ([4]; 25 °C, 0.5 MPa (experiment 5)): −10.8 %, mol
Migration, Measured ([4]; 25 °C, 0.5 MPa (experiment 5)): 77.3 %, mol
Migration, Increment (related to control) ([4]; 38 °C, 0.25 MPa (experiment 1)): −13.3 %, mol
Migration, Measured ([4]; 38 °C, 0.25 MPa (experiment 1), heptol 70:30, 3.5% salinity): 75.1 %, mol
Migration, Increment (related to control) ([4]; 38 °C, 0.75 MPa (experiment 3)): −12.2 %, mol
Migration, Measured ([4]; 38 °C, 0.75 MPa (experiment 3)): 76.1 %, mol
Migration, Increment (related to control) ([4]; 52 °C, 0.1 MPa (experiment 7)): −1.5 %, mol
Migration, Measured ([4]; 52 °C, 0.1 MPa (experiment 7)): 85.3 %, mol
Migration, Increment (related to control) [4, 8]: 2.2 %, mol and 1.8 %, mol
Migration, Measured ([4]; 52 °C, 0.5 MPa (experiments 9 and 10, centre point)): 88.5 %, mol and 88.2 %, mol
Migration, Increment (related to control) ([4]; 52 °C, 1 MPa (experiment 8)): 3.1 %, mol
Migration, Measured ([4]; 52 °C, 1 MPa (experiment 8)): 89.4 %, mol
Migration, Increment (related to control) ([4]; 66 °C, 0.25 MPa (experiment 2)): −4.1 %, mol
Migration, Measured ([4]; 66 °C, 0.25 MPa (experiment 2)): 83.1 %, mol
Migration, Increment (related to control) ([4]; 66 °C, 0.75 MPa (experiment 4)): −5.2 %, mol
Migration, Measured ([4]; 66 °C, 0.75 MPa (experiment 4)): 82.2 %, mol
Migration, Increment (related to control) ([4]; 80 °C, 0.5 MPa (experiment 6)): 0.5 %, mol
Migration, Measured ([4]; 80 °C, 0.5 MPa (experiment 6)): 87.1 %, mol
Migration, Increment (related to control) ([4]; 80 °C, 1 MPa (experiment 11)): 2.5 %, mol
Migration, Measured ([4]; 80 °C, 1 MPa (experiment 11, control)): 88.8 %, mol
Migration, Predicted ([4]; 25 °C, 0.5 MPa (experiment 5)): 74.2 %, mol
Migration, Predicted ([4]; 38 °C, 0.25 MPa (experiment 1)): 79.9 %, mol
Migration, Predicted ([4]; 38 °C, 0.75 MPa (experiment 3)): 82.2 %, mol
Migration, Predicted ([4]; 52 °C, 0.1 MPa (experiment 7)): 83.6 %, mol
Migration, Predicted [4, 8]: 85.4 %, mol
Migration, Predicted ([4]; 52 °C, 1 MPa (experiment 8)): 86.3 %, mol
Migration, Predicted ([4]; 66 °C, 0.25 MPa (experiment 2)): 86.5 %, mol
Migration, Predicted ([4]; 66 °C, 0.75 MPa (experiment 4)): 86.9 %, mol
Migration, Predicted ([4]; 80 °C, 0.5 MPa (experiment 6)): 85.5 %, mol
Migration, Predicted ([4]; 80 °C, 1 MPa (experiment 11)): 85.4 %, mol
Decrease in the tendency to migrate relative to control, maximum over the design ([4]; pressure up to 1 MPa, 25-80 °C): up to 13.3 % mol
Increase in migration relative to control, maximum over the design ([4]; pressure up to 1 MPa, 25-80 °C): up to 3.1 % mol
Migration ([5]; 25° C. and 1.0 MPa CO2, no alkalinity): 100 % mol
Migration ([5]; 80° C. and 1.0 MPa CO2, no alkalinity): 82.4 % mol
Migration ([5]; Na2CO3 + NaHCO3, 25° C. and 0.1 MPa): 61.3 % mol
Migration ([5]; Na2CO3 + NaHCO3, 25° C. and 1.0 MPa CO2): 100 % mol
Migration ([5]; Na2CO3 + NaHCO3, 80° C. and 1.0 MPa CO2): 79.9 % mol
Migration ([5]; NaHCO3, 25° C. and 0.1 MPa): 69.2 % mol
Migration ([5]; NaHCO3, 25° C. and 1.0 MPa CO2): 100 % mol
Migration ([5]; NaHCO3, 80° C. and 1.0 MPa CO2): 96.3 % mol
Migration ([5]; Reference (heptol + 3.5% NaCl), no alkalinity): 77 % mol
Salting out effect (reduction in the number of moles contained in the aqueous phase) ([6]; 30% (m·v^−1) NaCl versus tests without salinity): approximately 300%
Migration ([6]; Salinity 3.5 (%, m · m^−1) NaCl): 73.3 %, mol
Migration ([6]; Salinity 18.0 (%, m · m^−1) NaCl): 40.0 %, mol
Migration ([6]; Salinity 30.0 (%, m · m^−1) NaCl): 23.3 %, mol
Migration ([7]; Absence of ions (no demulsifier), salinity 3.5%): 77.0 %, mol
Migration ([7]; D961 50 mg · L^−1): 67.0 %, mol
Migration ([7]; D961 100 mg · L^−1): 70.0 %, mol
Migration ([7]; D961 1000 mg · L^−1): 75.7 %, mol
Migration ([7]; D974 50 mg · L^−1): 66.9 %, mol
Migration ([7]; D974 100 mg · L^−1): 74.3 %, mol
Migration ([7]; D974 1000 mg · L^−1): 74.8 %, mol
Effect of demulsifiers on partition equilibrium ([7]; up to 1000 mg·L^−1, 95% significance): no observable effect
SMILES: CCCCC(=O)O [Pentanoic Acid, pentanoic acid]

— patent US20250231157A1, “METHOD FOR DETERMINING THE PARTITION OF NAPHTHENIC ACIDS FROM A PRODUCTION WATER MIMICKING SYSTEM AND MIMICKING SYSTEM” (PETRÓLEO BRASILEIRO S.A. – PETROBRAS, priority 2023, published 2025)
